Results: patent US20150283120A1, “ANTIBIOTIC METHODS AND COMPOSITIONS FOR BACTERIA INFECTIONS” (THE UNIVERSITY OF CHICAGO, priority 2012, published 2015)
“Also recorded” adds a separate entry of the source. Structures can show the parent of a compound that is named as a salt.

What was measured:
Type in all cases: cell-based, Staphylococcus aureus
VRS2 = assay: microbe, parasite or virus in culture; conditions: Staphylococcus aureus, read-out: MIC Van
Text: (§1) As shown in the analysis of the checkerboard assays (Table 6), gossypol fully potentiated vancomycin (FIC i<0.5) in hVISA, VISA, VRS2 and VRS1. […] Clomiphene partially potentiated vancomycin in hVISA, VISA, and VRS1 and it fully potentiated in strain VRS2.

hVISA 2275 = assay: microbe, parasite or virus in culture; conditions: Staphylococcus aureus, read-out: MIC Van
Text: as §1

VRS1 = assay: microbe, parasite or virus in culture; conditions: Staphylococcus aureus, read-out: MIC Van
Text: as §1

VISA 2283 = assay: microbe, parasite or virus in culture; conditions: vancomycin alone; for MIC Van: VISA 2283
Text: as §1

[1] = tested on: MRSA strain USA300 Pvra-lux; conditions: compound 10 μM + oxacillin 2 μg/mL; for RG avg (relative growth): ratio of OD600 to oxacillin alone, four runs
Method: (§2) In the secondary screen each microtiter plate contained either cells in TSB alone (16 replicates), cells with oxacillin (2 μg/mL, 31 replicates), or cells with test compound and oxacillin (2 μg/mL, 49 wells). Each compound was assayed in four separate biological replicates.
(§3) All compounds classified in the primary screen as synergists that were vraSR-stimulating or -repressing (as shown in Table 8) were screened in a secondary assay for their effects on both growth and Pvra::lux induction by oxacillin. […] Each compound was tested four separate times at 10 μM in the presence of oxacillin (2 μg/mL) and luminescence was measured every 15 minutes. Relative growth (RG) and relative luminescence (RL) was calculated as the ratio between the OD600 or max LU value in the presence of compound and oxacillin over the average from pooled control values obtained from the same plate. […] Compounds that produced an average RG (ratio of the OD600 of the culture grown with test compound combined with oxacillin to that of oxacillin alone) of <0.8 were classified as oxacillin synergists or potentiators. The relative luminescence (RL) was the ratio of the LU produced in the presence of the test compound combined with oxacillin to that produced by oxacillin alone. Compounds were classified as “vraSR repressors” (mean RL of <0.8), “vraSR stimulators”, (mean RL>1.2), and “vraSR neutral” (mean RL between 0.80-1.2). […] In contrast, 34 compounds had no effect on growth in the presence of oxacillin (“un” in the OD600 category). Among the oxacillin potentiators, there were 2 vraSR stimulators, 3 vraSR neutral compounds and 10 vraSR repressors.

[2] = tested on: vraSR transcription (Pvra::lux); conditions: compound 10 μM + oxacillin 2 μg/mL; for RL avg (relative luminescence): ratio of LU to oxacillin alone, four runs
Method: as §2, §3

[3] = tested on: MRSA strain USA300-isolate 923; assay: Checkerboard MIC testing of compounds with oxacillin
vraR transcription = assay: Tertiary screen: qRT-PCR of vraR in strain 923; conditions: for classification of lux screen result against qRT-PCR (true/false repressor or stimulator): in the presence of oxacillin; for Effect on vraSR Transcription: With oxacillin / Effect on vraSR Transcription: Compound alone: qRT-PCR of vraR; for Effect on vraSR Transcription: With oxacillin: compound 10 μM + oxacillin 2 μg/mL; for Effect on vraSR Transcription: Compound alone: compound 10 μM, no oxacillin

SMILES	OD600 category [1]	RG avg (relative growth) [1]	Effect on vraSR transcription [2]	RL avg (relative luminescence) [2]	classification of lux screen result against qRT-PCR (true/false repressor or stimulator) (vraR transcription)	Effect on vraSR Transcription: With oxacillin (vraR transcription)	Effect on vraSR Transcription: Compound alone (vraR transcription)	further results
CN[C@H](CC(C)C)C(=O)N[C@H]1C(=O)N[C@@H](CC(N)=O)C(=O)N[C@H]2C(=O)N[C@H]3C(=O)N[C@H](C(=O)N[C@H](C(=O)O)c4cc(O)cc(O)c4-c4cc3ccc4O)[C@H](O)c3ccc(c(Cl)c3)Oc3cc2cc(c3O[C@@H]2O[C@H](CO)[C@@H](O)[C@H](O)[C@H]2O[C@H]2C[C@](C)(N)[C@H](O)[C@H](C)O2)Oc2ccc(cc2Cl)[C@H]1O [vancomycin]								MIC (VRS2): 16 µg/mL; MIC (hVISA 2275): 4 µg/mL; MIC (VRS1): 1020 µg/mL; MIC (VISA 2283; Staphylococcus aureus, VISA, read-out: MIC Van, VISA 2283): 16 µg/mL; MIC Van (VISA 2283): 8 µg/mL; MIC Van (VISA 2283; listed as Van): 8 µg/mL
CC1=CC(=O)c2ccccc2C1=O [Menadione, 2-Methylnaphthalene-1,4-dione]	inhibited (of <0.8 were classified as oxacillin synergists or potentiators)	0.69	repress (“vraSR repressors” (mean RL of <0.8))	0.47	true vraSR expression repressors	vraR inhibitors; also recorded: repress		oxacillin MIC ([3]; strain 923, Men 10.8 μM): 16 µg/mL; oxacillin MIC ([3]; strain 923, Men 12.3 μM): 16 µg/mL; oxacillin MIC ([3]; strain 923, Men 14.1 μM): 16 µg/mL; oxacillin MIC ([3]; strain 923, Men 16.1 μM): 2 µg/mL; oxacillin MIC ([3]; strain 923, Men 18.4 μM): 2 µg/mL; oxacillin MIC ([3]; strain 923, Men 21 μM): 2 µg/mL; oxacillin MIC ([3]; strain 923, Men 24 μM): 2 µg/mL; FICi (FIC index) with oxacillin ([3]; strain 923, in at least one combination (well)): > 0.5; MIC of oxacillin ([3]; strain 923, menadione at 16 μM): 2 µg/mL
C[C@H]1[C@H](C)CC[C@]2(C(=O)O)CC[C@]3(C)C(=CC[C@@H]4[C@@]5(C)CC[C@H](O)C(C)(C)[C@@H]5CC[C@]43C)[C@H]12 [Ursolic acid]	inhibited (of <0.8 were classified as oxacillin synergists or potentiators)	0.77	repress (“vraSR repressors” (mean RL of <0.8))	0.71			stimulate	
CCn1cc(C(=O)O)c(=O)c2cc(F)c(N3CCNCC3)cc21 [Norfloxacin, 1-ethyl-6-fluoro-4-oxo-7-piperazin-1-yl-1H-quinoline-3-carboxylic acid]	inhibited (of <0.8 were classified as oxacillin synergists or potentiators)	0.40	repress (“vraSR repressors” (mean RL of <0.8))	0.33	true vraSR expression repressors	repress		change of the MIC of oxacillin with compound concentration ([3]; strain 923, checkerboard): dose dependent decrease
CCCCc1oc2ccccc2c1C(=O)c1cc(I)c(OCCN(CC)CC)c(I)c1 [Amiodarone hydrochloride]	inhibited (of <0.8 were classified as oxacillin synergists or potentiators)	0.84	stimulate (“vraSR stimulators”, (mean RL>1.2))	0.68			stimulate	
